# Assays:
# AP activity = assay: cells; conditions: Erythrocyte, read-out: IC50 for PNH erythrocyte hemolysis
# [1] = Ocular tissue and plasma pharmacokinetics, 50 mg/kg BID oral, New Zealand White rabbits (Example 4); type: in vivo; conditions: one-hour post-dose on Day 15
# Description: Study design, including group designation and dose levels, are outlined in Table 15. […] Two Dutch Belted rabbits received vehicle only oral gavage doses for tolerability assessment. […] The dose volume was 5 mL/kg/dose for all groups. Safety was assessed with toxicological and ophthalmic examinations, including slit lamp biomicroscopy, indirect ophthalmoscopy, rebound tonometry, and ultrasonic corneal pachymetry. […] Plasma, vitreous humor (VH), retina, choroid-retina pigmented epithelium (Choroid-RPE), optic nerve (ON), and iris-ciliary body (I-CB) were analyzed by LC-MS/MS to quantify test article concentrations. The lower limit of quantitation (LLOQ) in plasma and vitreous humor was 1.0 ng/mL.
smiles,measurement,setting,value
"CC(=O)c1nn(CC(=O)N2C[C@H](F)C[C@H]2C(=O)Nc2cccc(Br)n2)c2ccc(-c3cnc(C)nc3)cc12 [Compound 1, (2S,4R)-1-(2-(3-Acetyl-5-(2-methylpyrimidin-5-yl)-1H-indazol-1-yl)acetyl)-N-(6-bromopyridin-2-yl)-4-fluoropyrrolidine-2-carboxamide]",IC50,AP activity,14 nM
same,Choroid-RPE tissue exposure in NZW versus DB rabbit,[1],approximately five-fold lower

# — patent US20230126447A1, “OCULAR DRUG DEPOT FOR COMPLEMENT-MEDIATED DISORDERS” (priority 2020, published 2023)
